Publication PMC10947119 (Angewandte Chemie (International Ed. in English), 2023)

Legend:
MtbPPAT [1] = biological target: T1, MtbPPAT (Mycobacterium tuberculosis, UniProt P9WPA5); assay type: binding; conditions: for Affinity increase (KD lower) relative to parent indole fragment 12: KD by ITC vs KD of 12
Mycobacterium abscessus = conditions: cited from earlier work
MtbPPAT [2] = biological target: T1, MtbPPAT; experiment: MtbPPAT activity assay; assay type: biochemical; conditions: 1 mM compound, ATP 120, 240, 500 µM
[3] = system: PPAT of Mycobacterium abscessus; conditions: cited from earlier work
wildtype Mtb H37RvMA = assay type: cell-based, Mycobacterium tuberculosis
MtbPPAT [4] = biological target: T1, MtbPPAT; conditions: read-out: KD, previous estimates; ITC, near-identical conditions; cited from earlier work

T1 sequence (P9WPA5 whole entry, looked up, the tested form may be a part): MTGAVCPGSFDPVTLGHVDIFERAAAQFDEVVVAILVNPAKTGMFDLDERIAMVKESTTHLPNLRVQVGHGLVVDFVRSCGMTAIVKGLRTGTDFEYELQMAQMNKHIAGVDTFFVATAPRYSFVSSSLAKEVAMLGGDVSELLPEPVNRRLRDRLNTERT

Compound | Affinity increase (KD lower) relative to parent indole fragment 12 (MtbPPAT [1]) | Ligand efficiency LE (MtbPPAT [1]; from direct ITC KD, Condition 1 (20 mM NaCl)) [kcal mol^−1 NHA^−1] | Whole-cell activity against M. abscessus (Mycobacterium abscessus) | Mode of inhibition of MtbPPAT activity (MtbPPAT [2]) | Affinity for M. abscessus PPAT [3] | Effect of ATc on potency (wildtype Mtb H37RvMA) | Kd (MtbPPAT [4]) [µM]
O=C(O)c1cnn(-c2ccccc2)c1OCCc1c[nH]c2ccccc12 [compound 19] | ≈ 25 fold |  |  |  |  |  | 
O=C(O)c1cnn(-c2ccccc2)c1OCCCc1c[nH]c2ccccc12 [compound 20] | ≈ 65 fold | 0.24 | lacked whole‐cell activity | ATP‐competitive manner | low‐micromolar affinity | no effect | 
CC(C)(COP(=O)(O)OP(=O)(O)OC[C@H]1O[C@@H](n2cnc3c(N)ncnc32)[C@H](O)[C@@H]1OP(=O)(O)O)[C@@H](O)C(=O)NCCC(=O)NCCS [CoA, coenzyme A] |  |  |  |  |  |  | ≥ 13
